The subject of data set [1] is MOLM 13. The data set is described as follows: Cell viability (CellTiter-Glo), 6-day compound treatment. Type of data set: cell-based, Human. The note with it: Homo sapiens, MOLM-13, 144 h, read-out: MOLM 13 Viability 6 d IC50. The procedure, abridged:
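Cells plated at 1700 per well, left overnight at 37° C./5% CO2, then exposed to 10-fold compound dilutions for 6 days […]. Viability by CellTiter-Glo luminescence; IC50 from nonlinear regression fit.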

Data set [2] has as its system SKOV-3. Put plainly: Cell viability (CellTiter-Glo), 48 hrs. Type of data set: cell-based. The note with it: Homo sapiens, SK-OV-3, 48 h, read-out: SKOV-3 Viability 48 h IC50. (Cellular ATP, detected with luciferase, serves as a proxy for viable cell number.)
The target of data set [3] is BIR3 domain of XIAP (Homo sapiens, UniProt P98170). Put plainly: Fluorescence polarization assay. Type of data set: binding. As to conditions: SMAC-FITC probe, Ki calculated from IC50. The procedure, abridged: (§1)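 Competitive FP with 50 nM SMAC-FITC probe in 100 mM KH2PO4 pH 7.5, 50 μM ZnSO4, 1 mM TCEP; cIAP1 and XIAP at 800 nM, cIAP2 and ML-IAP at 1.5 μM. Compounds 30 μM to 1.5 nM in 3-fold steps; ex 485/em 535 nm. IC50 by nonlinear fit, converted to Ki via Nikolovska-Coleska equation.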
BIR3 domain of XIAP, sequence (P98170 241-356 limits assumed): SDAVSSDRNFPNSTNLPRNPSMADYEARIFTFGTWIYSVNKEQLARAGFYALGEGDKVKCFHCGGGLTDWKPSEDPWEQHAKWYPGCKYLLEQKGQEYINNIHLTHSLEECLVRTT

Data set [4] has as its target BIR3 domain of cIAP1 (Homo sapiens, UniProt Q13490). Put plainly: Fluorescence polarization assay. In kind it is binding. The note with it: SMAC-FITC probe, Ki calculated from IC50. The method in brief: as §1
Data set [5] deals with BIR3 domain of cIAP2 (Homo sapiens, UniProt Q13489). The data set is described as follows: Fluorescence polarization assay. The note with it: SMAC-FITC probe, Ki calculated from IC50. Type of data set: binding. The method in brief:
as §1

In data set [6] the target is T1, ML-IAP (Homo sapiens, UniProt Q96CA5).
T1 sequence (Q96CA5 1-298): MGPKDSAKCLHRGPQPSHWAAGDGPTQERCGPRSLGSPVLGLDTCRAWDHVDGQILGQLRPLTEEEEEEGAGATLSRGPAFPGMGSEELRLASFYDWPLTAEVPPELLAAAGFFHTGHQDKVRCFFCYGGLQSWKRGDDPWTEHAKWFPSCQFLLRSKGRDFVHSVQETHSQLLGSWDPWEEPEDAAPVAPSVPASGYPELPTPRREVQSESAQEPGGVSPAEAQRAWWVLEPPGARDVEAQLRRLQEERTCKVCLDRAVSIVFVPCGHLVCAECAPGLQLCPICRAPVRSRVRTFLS
Put plainly: Fluorescence polarization assay. Type of data set: binding. As to conditions: SMAC-FITC probe, Ki calculated from IC50. The method in brief: as §1

For data set [7], the system named is AML-SH-065. The data set is described as follows: Cell viability in patient derived AML samples (CellTiterGlo, 72 h). In kind it is cell-based, human. Here is the method: (§2) Patient AML samples were gathered (under IRB 13-6180) from Scripps MD Anderson, La Jolla, CA Fresh blood samples were subjected to gradient density centrifugation with Ficoll-Paque™ PLUS (17-1440-02, GE Healthcare) and peripheral blood mononuclear cells purified as per manufacturer's protocol.
(§3) 75 nL of 1000× serially diluted IAP inhibitors were spotted in triplicate onto 384-well tissue culture treated plates (Greiner) using a Labcyte Echo acoustic dispensing device. Patient-derived AML cells were maintained in mTeSR1^+1× supplements (Stemcell Technologies) and penicillin/streptomycin/L-glutamine (Omega Scientific Inc.) and Fungizone (HyClone). 25 μL of cell dilution were plated into 384-well plate containing the drugs and incubated for 72 h. Cell viability was assessed by adding 25 μL CellTiterGlo (Promega Corp.) on a Synergy 2 plate reader with Gen5 software (Biotek). % viability was calculated by normalizing luminescence to vehicle only controls (DMSO) in Microsoft Excel and plotted using GraphPad Prism 8. The IC50 values were calculated using log(inhibitor) vs. response—Variable slope (four parameters) equation. (FIG. 6)

The test system of data set [8] is AML-SH-074. The data set is described as above. In kind it is cell-based, human. On the procedure:
as §2, §3

Data set [9] concerns AML-SH-075. The data set is described as above. Type of data set: cell-based, human. Here is the method: as §2, §3
In data set [10] the test system is latently infected cell line Jurkat 2D10. Put plainly: HIV Jurkat 2D10 cells GFP+ assay (reversal of HIV latency). As to conditions: Homo sapiens, Jurkat, 48 h, read-out: Jurkat 2D10 GFP+ EC50. Type of data set: cell-based. The method in brief:
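Jurkat 2D10 cells exposed to graded doses of test compounds or IAP antagonists (BV-6, SM-164, Birinapant, LCL-161, GDC-0152, AT-406) for 48 hours. GFP expression quantified by flow cytometry. Induction expressed relative to baseline GFP in untreated cells.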

A short description of data set [11]: Pharmacokinetic study in mice, time course PK. Type of data set: in vivo. The note with it: female, C57BL/6J, mouse, IP dose 10 mg/kg, plasma. On the procedure: (§4) All animal procedures were approved by the Sanford Burnham Prebys Medical Discovery Institute Institutional Animal Care and Use Committee and were performed according to the NIH guidelines for the Care and Use of Laboratory Animals. Adult female C57BL/6J were purchased from JAX laboratories and housed with free access to food and water on a 12 h light/dark cycle. Compounds were formulated in 5% DMSO, 10% Tween-80, and 85% dH2O and injected intraperitoneally (i.p.) into mice at doses of 10 mg/kg. For snapshot PK analysis, blood samples were collected retro-orbitally one hour after injection and for the time course PK study, blood samples were collected at 15 min, 30 min, 1 h, 2 h, 4 h, 6 h, 24 h time points. For the blood samples plasma was separated by centrifugation. Plasma samples were extracted with acetonitrile:water 4:1 with 0.1% formic acid containing indometacin as an internal standard. Samples were centrifuged and supernatants were diluted with acetonitrile:water and analyzed via LC-MS/MS on a Shimadzu Nexera X2 HPLC coupled to an AB Sciex 6500 QTRAP.
In vivo pharmacokinetic data for compound 18m in mice. Compound was formulated in 5% DMSO, 10% Tween 80 and water and administered by intraperitoneal injection.

Data set [12] can be described thus: Pharmacokinetic study in mice, snapshot PK. In kind it is in vivo. The note with it: female, C57BL/6J, mouse, plasma, ip, one hour after i.p. injection of 10 mg/kg. Here is the method: as §4
Plasma exposure of selected compounds at 1 h compared.
Plasma levels of parent compound determined one hour after i.p. injection of 10 mg/kg

BIR3 domain of cIAP2, sequence (Q13489 238-349 limits assumed): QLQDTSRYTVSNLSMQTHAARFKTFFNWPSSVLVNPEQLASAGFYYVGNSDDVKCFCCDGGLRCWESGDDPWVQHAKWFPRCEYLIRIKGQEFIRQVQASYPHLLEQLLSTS
BIR3 domain of cIAP1, sequence (Q13490 253-363 limits assumed): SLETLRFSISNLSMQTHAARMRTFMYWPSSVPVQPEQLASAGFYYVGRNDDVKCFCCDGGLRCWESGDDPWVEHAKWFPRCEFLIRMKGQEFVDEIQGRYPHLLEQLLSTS

The IC50 is the concentration that gives 50% inhibition. For orientation: Ki means the dissociation constant of the complex between target and ligand, obtained from inhibition or displacement. Usually EC50 stands for the concentration giving half of the maximal effect. As usually defined, the AUC(0-t) is the area under the concentration-time curve up to a stated or last time point. What is called Cmax is the maximum level reached in the sampled fluid or tissue. For orientation: Tmax means the time from dosing to the highest level. The term half-life denotes how long it takes for the measured level to halve. Read a high half-life as slow loss. Take `CC[C@H](NC)C(=O)N[C@H]1CCS[C@H]2CC(C)(C)[C@@H](C(=O)N[C@H]3c4ccccc4C[C@H]3OCC#CC#CCO[C@@H]3Cc4ccccc4[C@@H]3NC(=O)[C@H]3N4C(=O)[C@@H](NC(=O)[C@H](CC)NC)CCS[C@H]4CC3(C)C)N2C1=O` [Compound 18m, [(1S)-1-{[(4S,7S,9aS)-7-{[(1S,2R)-2-[(6-{[(1S,2R)-1-[(4S,7S,9aS)-8,8-Dimethyl-4-[(2S)-2-(methylazaniumyl)butanamido]-5-oxo-octahydropyrrolo[2,1-b][1,3]thiazepine-7-amido]-2,3-dihydro-1H-inden-2-yl]oxy}hexa-2,4-diyn-1-yl)oxy]-2,3-dihydro-1H-inden-1-yl]carbamoyl}-8,8-dimethyl-5-oxo-octahydropyrrolo[2,1-b][1,3]thiazepin-4-yl]carbamoyl}propyl](methyl)azanium dichloride]: the IC50 in data set [1] was 10 to 100 nM; in data set [2], below 10 nM; in data set [7] (Homo sapiens, 72 h, read-out: AML-SH-065 IC50) it was below 10 nM; in [8] (Homo sapiens, 72 h, read-out: AML-SH-074 IC50) it was 100 to 1000 nM; in data set [9] (Homo sapiens, 72 h, read-out: AML-SH-075 IC50), 10 to 100 nM. Besides, the Ki in data set [3] was at most 50 nM; in data set [4], at most 50 nM; in data set [5] it was 50 to 100 nM; in data set [6], 50 to 100 nM. The “AML-SH-065 Efficacy” value in [7] (patient derived AML sample AML-SH-065, 72 h, cell viability at max. concentration) was “I (I < 10%)”. Moreover, in data set [8] (patient derived AML sample AML-SH-074, 72 h, cell viability at max. concentration), the “AML-SH-074 Efficacy” value was “I (I < 10%)”. In data set [9] (patient derived AML sample AML-SH-075, 72 h, cell viability at max. concentration), the “AML-SH-075 Efficacy” value is given as “I (I < 10%)”. Also, the EC50 in data set [10] was in the range of 1 to 10 nM. The molecule also gave an AUC(0-t) in [11] of 18.1 µM·h. For the same molecule, the highest concentration (Cmax) in data set [11] is 6.6 µM. Besides, the time of peak concentration (Tmax) in data set [11] was determined as 1 h. In data set [11] (terminal half-life), this molecule had a half-life of 3 h. This molecule also showed a concentration at 1 h in data set [12] of 6.59 µM.

These data come from patent US12678509B2, “Inhibitor of apoptosis (IAP) protein antagonists” (Sanford Burnham Prebys Medical Discovery Institute, priority 2019, dated 2026).
